According to patent publication US6982348B2, “Aminoethanol derivatives” (Takeda Pharmaceutical Company Limited, priority 2001, dated 2006):

| melting point [°C] | SMILES |
| --- | --- |
| 152 to 154 | O=C(N[C@H](Cc1cccc(OC(F)(F)C(F)F)c1)[C@@H](O)c1ccc(-c2ccccc2CO)cc1)c1cccc2c1C=CCCC2 (racemic) [Example 302, N-[(1RS,2SR)-2-[2′-(hydroxymethyl)[1,1′-biphenyl]-4-yl]-2-hydroxy-1-[3-(1,1,2,2-tetrafluoroethoxy)benzyl]ethyl]-6,7-dihydro-5H-benzo[a]cycloheptene-1-carboxamide] |
| 197 to 199 | NC(=O)c1ccc([C@H](O)[C@@H](Cc2cccc(OC(F)(F)C(F)F)c2)NC(=O)c2cccc3c2C=CCCC3)cc1 (racemic) [Example 311, N-[(1RS,2SR)-2-[4-(aminocarbonyl)phenyl]-2-hydroxy-1-[3-(1,1,2,2-tetrafluoroethoxy)benzyl]ethyl]-6,7-dihydro-5H-benzo[a]cycloheptene-1-carboxamide] |
| 207 to 208 | CCCCNC(=O)c1ccc([C@H](O)[C@@H](Cc2cccc(OC(F)(F)C(F)F)c2)NC(=O)c2cccc3c2C=CCCC3)cc1 (racemic) [Example 317, N-[(1RS,2SR)-2-[4-[(butylamino)carbonyl]phenyl]-2-hydroxy-1-[3-(1,1,2,2-tetrafluoroethoxy)benzyl]ethyl]-6,7-dihydro-5H-benzo[a]cycloheptene-1-carboxamide] |
| 177 to 178 | Cc1ccc(C(=O)N[C@H](Cc2cccc(OC(F)(F)C(F)F)c2)[C@@H](O)c2ccc(F)cc2)c2c1CCCC=C2 (racemic) [Example 318, N-[(1RS,2SR)-2-(4-fluorophenyl)-2-hydroxy-1-[3-(1,1,2,2-tetrafluoroethoxy)benzyl]ethyl]-4-methyl-6,7-dihydro-5H-benzo[a]cycloheptene-1-carboxamide] |
| 127 to 128 | O=C(N[C@H](Cc1cc(OC(F)(F)C(F)F)no1)[C@@H](O)c1ccc(F)cc1)c1cccc2c1C=CCCC2 (racemic) [Example 320, N-[(1RS,2SR)-2-(4-fluorophenyl)-2-hydroxy-1-[[3-(1,1,2,2-tetrafluoroethoxy)isoxazol-5-yl]methyl]ethyl]-6,7-dihydro-5H-benzo[a]cycloheptene-1-carboxamide] |
| 153 to 155 | Nc1ccc([C@H](O)[C@@H](Cc2cccc(OC(F)(F)C(F)F)c2)NC(=O)c2cccc3c2C=CCCC3)cc1 (racemic) [Example 322, N-[(1RS,2SR)-2-(4-aminophenyl)-2-hydroxy-1-[3-(1,1,2,2-tetrafluoroethoxy)benzyl]ethyl]-6,7-dihydro-5H-benzo[a]cycloheptene-1-carboxamide] |
| 165 to 167 | CC(C)c1cccc(C[C@@H](NC(=O)c2cccc3c2C=CCCC3)[C@@H](O)c2ccc(F)cc2)c1 (racemic) [Example 323, N-[(1RS,2SR)-2-(4-fluorophenyl)-2-hydroxy-1-(3-isopropylbenzyl)ethyl]-6,7-dihydro-5H-benzo[a]cycloheptene-1-carboxamide] |
| 151 to 152 | O=C(N[C@H](Cc1cccc(OC(F)(F)C(F)F)c1)[C@@H](O)c1ccc(CO)cc1)c1cccc2c1C=CCCC2 (racemic) [Example 327, N-[(1RS,2SR)-2-hydroxy-2-[4-(hydroxymethyl)phenyl]-1-[3-(1,1,2,2-tetrafluoroethoxy)benzyl]ethyl]-6,7-dihydro-5H-benzo[a]cycloheptene-1-carboxamide] |

The remaining lines, values behind:

| SMILES | melting point [°C] |
| --- | --- |
| O=C(N[C@H](Cc1cccc(OC(F)(F)C(F)F)c1)[C@@H](O)c1ccc(-c2cccc(CO)c2)cc1)c1cccc2c1C=CCCC2 (racemic) [Example 303, N-[(1RS,2SR)-2-[3′-(hydroxymethyl)[1,1′-biphenyl]-4-yl]-2-hydroxy-1-[3-(1,1,2,2-tetrafluoroethoxy)benzyl]ethyl]-6,7-dihydro-5H-benzo[a]cycloheptene-1-carboxamide] | 178 to 179 |
| O=C(N[C@H](Cc1cccc(OC(F)(F)C(F)F)c1)[C@@H](O)c1ccc(-c2ccc(CO)cc2)cc1)c1cccc2c1C=CCCC2 (racemic) [Example 304, N-[(1RS,2SR)-2-[4′-(hydroxymethyl)[1,1′-biphenyl]-4-yl]-2-hydroxy-1-[3-(1,1,2,2-tetrafluoroethoxy)benzyl]ethyl]-6,7-dihydro-5H-benzo[a]cycloheptene-1-carboxamide] | 189 to 191 |
| CC1(C)CCC=Cc2c(C(=O)N[C@H](Cc3cccc(OC(F)(F)C(F)F)c3)[C@@H](O)c3ccc(F)cc3)cccc21 (racemic) [Example 305, N-[(1RS,2SR)-2-(4-fluorophenyl)-2-hydroxy-1-[3-(1,1,2,2-tetrafluoroethoxy)benzyl]ethyl]-5,5-dimethyl-6,7-dihydro-5H-benzo[a]cycloheptene-1-carboxamide] | 101 to 104 |
| COC(=O)c1ccc([C@@H](O)[C@H](Cc2cccc(OC(F)(F)C(F)F)c2)NC(=O)OC(C)(C)C)cc1 (racemic) [Example 308, methyl 4-[(1RS,2SR)-2-[(tert-butoxycarbonyl)amino]-1-hydroxy-3-[3-(1,1,2,2-tetrafluoroethoxy)phenyl]propyl]benzoate] | 148 to 150 |
| COC(=O)c1ccc([C@@H](O)[C@H](Cc2cccc(OC(F)(F)C(F)F)c2)NC(=O)c2cccc3c2C=CCCC3)cc1 (racemic) [Example 309, methyl 4-[(1RS,2SR)-2-[(6,7-dihydro-5H-benzo[a]cyclohepten-1-ylcarbonyl)amino]-1-hydroxy-3-[3-(1,1,2,2-tetrafluoroethoxy)phenyl]propyl]benzoate] | 137 to 138 |
| O=C(O)c1ccc([C@@H](O)[C@H](Cc2cccc(OC(F)(F)C(F)F)c2)NC(=O)c2cccc3c2C=CCCC3)cc1 (racemic) [Example 310, 4-[(1RS,2SR)-2-[(6,7-dihydro-5H-benzo[a]cyclohepten-1-ylcarbonyl)amino]-1-hydroxy-3-[3-(1,1,2,2-tetrafluoroethoxy)phenyl]propyl]benzoic acid] | 210 to 211 |
| CN(C)C(=O)c1ccc([C@H](O)[C@@H](Cc2cccc(OC(F)(F)C(F)F)c2)NC(=O)c2cccc3c2C=CCCC3)cc1 (racemic) [Example 312, N-[(1RS,2SR)-2-[4-[(dimethylamino)carbonyl]phenyl]-2-hydroxy-1-[3-(1,1,2,2-tetrafluoroethoxy)benzyl]ethyl]-6,7-dihydro-5H-benzo[a]cycloheptene-1-carboxamide] | 165 to 166 |
| O=C(N[C@H](Cc1cccc(OC(F)(F)C(F)F)c1)[C@@H](O)c1ccc(C(=O)N2CCCCC2)cc1)c1cccc2c1C=CCCC2 (racemic) [Example 313, N-[(1RS,2SR)-2-hydroxy-2-[4-(piperidinocarbonyl)phenyl]-1-[3-(1,1,2,2-tetrafluoroethoxy)benzyl]ethyl]-6,7-dihydro-5H-benzo[a]cycloheptene-1-carboxamide] | 176 to 177 |
| O=C(Nc1ccccc1)c1ccc([C@H](O)[C@@H](Cc2cccc(OC(F)(F)C(F)F)c2)NC(=O)c2cccc3c2C=CCCC3)cc1 (racemic) [Example 314, N-[(1RS,2SR)-2-[4-(anilinocarbonyl)phenyl]-2-hydroxy-1-[3-(1,1,2,2-tetrafluoroethoxy)benzyl]ethyl]-6,7-dihydro-5H-benzo[a]cycloheptene-1-carboxamide] | 205 to 206 |
| CC(C)NC(=O)c1ccc([C@H](O)[C@@H](Cc2cccc(OC(F)(F)C(F)F)c2)NC(=O)c2cccc3c2C=CCCC3)cc1 (racemic) [Example 315, N-[(1RS,2SR)-2-hydroxy-2-[4-[(isopropylamino)carbonyl]phenyl]-1-[3-(1,1,2,2-tetrafluoroethoxy)benzyl]ethyl]-6,7-dihydro-5H-benzo[a]cycloheptene-1-carboxamide] | 215 to 217 |
| O=C(NCc1ccccc1)c1ccc([C@H](O)[C@@H](Cc2cccc(OC(F)(F)C(F)F)c2)NC(=O)c2cccc3c2C=CCCC3)cc1 (racemic) [Example 316, N-[(1RS,2SR)-2-[4-[(benzylamino)carbonyl]phenyl]-2-hydroxy-1-[3-(1,1,2,2-tetrafluoroethoxy)benzyl]ethyl]-6,7-dihydro-5H-benzo[a]cycloheptene-1-carboxamide] | 216 to 217 |
| CC(C)(C)OC(=O)N[C@H](Cc1cc(OC(F)(F)C(F)F)no1)[C@@H](O)c1ccc(F)cc1 (racemic) [Example 319, tert-butyl N-[(1RS,2SR)-2-(4-fluorophenyl)-2-hydroxy-1-[[3-(1,1,2,2-tetrafluoroethoxy)isooxazol-5-yl]methyl]ethyl]carbamate] | 114 to 115 |
| CC(C)(C)OC(=O)Nc1ccc([C@H](O)[C@@H](Cc2cccc(OC(F)(F)C(F)F)c2)NC(=O)c2cccc3c2C=CCCC3)cc1 (racemic) [Example 321, N-[(1RS,2SR)-2-[4-[(tert-butoxycarbonyl)amino]phenyl]-2-hydroxy-1-[3-(1,1,2,2-tetrafluoroethoxy)benzyl]ethyl]-6,7-dihydro-5H-benzo[a]cycloheptene-1-carboxamide] | 153 to 156 |
| CC(C)c1cccc(C[C@@H](NC(=O)c2ccc(F)c3ccccc23)[C@@H](O)c2ccc(F)cc2)c1 (racemic) [Example 324, 4-fluoro-N-[(1RS,2SR)-2-(4-fluorophenyl)-2-hydroxy-1-(3-isopropylbenzyl)ethyl]naphthalene-1-carboxamide] | 159 to 160 |
| CC(C)(C)OC(=O)N[C@H](Cc1cccc(OC(F)(F)C(F)F)c1)[C@@H](O)c1ccc(C=O)cc1 (racemic) [Example 325, tert-butyl N-[(1RS,2SR)-2-(4-formylphenyl)-2-hydroxy-1-[3-(1,1,2,2-tetrafluoroethoxy)benzyl]ethyl]carbamate] | 140 to 142 |
| O=Cc1ccc([C@H](O)[C@@H](Cc2cccc(OC(F)(F)C(F)F)c2)NC(=O)c2cccc3c2C=CCCC3)cc1 (racemic) [Example 326, N-[(1RS,2SR)-2-(4-formylphenyl)-2-hydroxy-1-[3-(1,1,2,2-tetrafluoroethoxy)benzyl]ethyl]-6,7-dihydro-5H-benzo[a]cycloheptene-1-carboxamide] | 164 to 166 |
| N#CC(c1ccc([C@H](O)[C@@H](Cc2cccc(OC(F)(F)C(F)F)c2)NC(=O)c2cccc3c2C=CCCC3)cc1)N1CCCCC1 (mixture of isomers) [Example 327, N-[(1RS,2SR)-2-[4-[cyano(piperidino)methyl]phenyl]-2-hydroxy-1-[3-(1,1,2,2-tetrafluoroethoxy)benzyl]ethyl]-6,7-dihydro-5H-benzo[a]cycloheptene-1-carboxamide] | 152 to 154 |
